The source of these data is patent US11975073B2 (priority 2020, dated 2024).

The conditions of data set [1]: male, Sprague-Dawley, rat, in vivo, po.
For data set [2] the following is noted: Sprague-Dawley, rat, in vivo, 8.8 umol/kg.
The conditions of data set [3]: cynomolgus monkey, in vivo, po; for AUCinf, free allopregnanolone / AUCinf, total allopregnanolone / Cmax, free allopregnanolone / Cmax, total allopregnanolone: male, 8.8 umol/kg.

Where two headings read alike, the source gives them in different places.

As for `CCCC(=O)OCC(COC(=O)CCC)OC(=O)CC(C)CC(=O)OC(C)OC(=O)O[C@@H]1CC[C@@]2(C)[C@@H](CC[C@@H]3[C@@H]2CC[C@]2(C)[C@@H](C(C)=O)CC[C@@H]32)C1` (stereo partly drawn) [I-37], in data set [1], the Tmax stood at 0.8 h.

In the case of `CCCCCCCC/C=C\CCCCCCCC(=O)OCC(COC(=O)CCCCCCC/C=C\CCCCCCCC)OC(=O)CC(C)CC(=O)OCO[C@@H]1CC[C@@]2(C)[C@@H](CC[C@@H]3[C@@H]2CC[C@]2(C)[C@@H](C(C)=O)CC[C@@H]32)C1` (stereo partly drawn) [I-9], in data set [1] (2 mg/kg), the Cmax was found to be 126 nM; the “Mean Plasma AUC, 0-24 h” value came to 192.1 nM·h; the Tmax is listed as 1.3 h.

Regarding `CC(=O)OCC(COC(C)=O)OC(=O)CC(C)CC(=O)OC(C)OC(=O)O[C@@H]1CC[C@@]2(C)[C@@H](CC[C@@H]3[C@@H]2CC[C@]2(C)[C@@H](C(C)=O)CC[C@@H]32)C1` (stereo partly drawn) [I-38], in data set [1], the “Mean Plasma AUC, 0-24 h” value amounted to 450 nM·h and the Tmax was 1 h.

With `CCCCCCCC(=O)OCC(COC(=O)CCCCCCC)OC(=O)CC(C)CC(=O)OCOC(=O)O[C@@H]1CC[C@@]2(C)[C@@H](CC[C@@H]3[C@@H]2CC[C@]2(C)[C@@H](C(C)=O)CC[C@@H]32)C1` (stereo partly drawn) [I-47, ALL-CASI-C5bMe-2-TG-octanoate], in data set [2], the “AUCinf, free allopregnanolone” value amounted to 1.15 nM·h; the “AUCinf, total allopregnanolone” value was 3.03 nM·h; the “Cmax, free allopregnanolone” value came out at 520 nM; the “Cmax, total allopregnanolone” value was found to be 900 nM. In addition, in data set [3], the “Prodrug detectability in plasma samples after dose administration” value is on record as “detectable in plasma samples after dose administration at all time-points”; the “AUCinf, free allopregnanolone” value stood at 0.78 nM·h; the “AUCinf, total allopregnanolone” value came out at 7.4 nM·h; the “Cmax, free allopregnanolone” value stood at 120 nM. Further, the “Cmax, total allopregnanolone” value in data set [3] came to 1170 nM.

For the compound `CCCCCCCC/C=C\CCCCCCCC(=O)OCC(COC(=O)CCCCCCC/C=C\CCCCCCCC)OC(=O)CCCCCCC(=O)OCO[C@@H]1CC[C@@]2(C)[C@@H](CC[C@@H]3[C@@H]2CC[C@]2(C)[C@@H](C(C)=O)CC[C@@H]32)C1` [I-41], the Tmax in data set [1] (2 mg/kg) is 1.7 h.

Take `CCCCCCCC/C=C\CCCCCCCC(=O)OCC(COC(=O)CCCCCCC/C=C\CCCCCCCC)OC(=O)CC(C)CCCCC(=O)OCO[C@@H]1CC[C@@]2(C)[C@@H](CC[C@@H]3[C@@H]2CC[C@]2(C)[C@@H](C(C)=O)CC[C@@H]32)C1` (stereo partly drawn) [I-42]: the Tmax in data set [1] (2 mg/kg) amounted to 1.5 h.

On to `CCCCCCCC(=O)OCC(COC(=O)CCCCCCC)OC(=O)CC(C)CC(=O)OC(C)OC(=O)O[C@@H]1CC[C@@]2(C)[C@@H](CC[C@@H]3[C@@H]2CC[C@]2(C)[C@@H](C(C)=O)CC[C@@H]32)C1` (stereo partly drawn) [I-36, ALL-CMSI-C5bMe-2-TG-octanoate], for which, in data set [1], the Cmax worked out at 242 nM and the Tmax was 1.2 h. For the same compound, in data set [2], the “AUCinf, free allopregnanolone” value was 1.12 nM·h; the “AUCinf, total allopregnanolone” value stood at 3.86 nM·h; the “Cmax, free allopregnanolone” value came out at 540 nM; the “Cmax, total allopregnanolone” value stood at 800 nM. In data set [3], the “Prodrug detectability in plasma samples after dose administration” value is reported as “detectable in plasma samples after dose administration at all time-points”; the “AUCinf, free allopregnanolone” value stood at 0.62 nM·h; the “AUCinf, total allopregnanolone” value is 16.2 nM·h; the “Cmax, free allopregnanolone” value turned out to be 100 nM. In data set [3], the “Cmax, total allopregnanolone” value was found to be 2720 nM.

For `CCCCCCCC/C=C\CCCCCCCC(=O)OCC(COC(=O)CCCCCCC/C=C\CCCCCCCC)OC(=O)CCCCC(=O)OCO[C@@H]1CC[C@@]2(C)[C@@H](CC[C@@H]3[C@@H]2CC[C@]2(C)[C@@H](C(C)=O)CC[C@@H]32)C1` [I-40], the Tmax in data set [1] (2 mg/kg) turned out to be 1.7 h.

As for `CCCCCCCC/C=C\CCCCCCCC(=O)OCC(COC(=O)CCCCCCC/C=C\CCCCCCCC)OC(=O)CCCCC(C)CC(=O)OCOC(=O)O[C@@H]1CC[C@@]2(C)[C@@H](CC[C@@H]3[C@@H]2CC[C@]2(C)[C@@H](C(C)=O)CC[C@@H]32)C1` (stereo partly drawn) [I-49, ALL-CASI-C8b′Me-2-TG-oleate], the Tmax in data set [1] (2 mg/kg) is on record as 1.7 h.

As a reminder, the Tmax is the time from dosing to the highest level. The Cmax is the peak of the concentration-time curve.
